Test results as given in the supplement of paper PMC11451515.

How the values were obtained:
Details in all cases: 48 h
SEM cells [1] = test: cell viability relative to DMSO control; higher = less cytotoxic
Outline: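 Viability values are per-plate percentages of DMSO wells, with background from cell-free wells. Library compounds in DMSO were pin-dosed, in an 11-point threefold series from 47 μM to 0.79 nM, onto NOMO1 or SEM (500 cells/well) or P12-Ichikawa (1000 cells/well) leukemia cells in 1536-well plates (5 μl). Those cells had been adapted for at least four passages in each medium, and CellTiter-Glo One luminescence was read after 48 h at 37°C.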

NOMO1 = test: AUC of viability dose-response curve (% viability x log10 dose units); higher = less sensitive
Outline: (§1)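 Library compounds in DMSO were applied for 48 h at 37°C at 11 threefold doses (47 μM to 0.79 nM) to medium-adapted leukemia cells in 1536-well plates holding 500 or 1000 cells/well. Luminescence from CellTiter-Glo One was normalised plate by plate against DMSO and cell-free wells. Area under the curve came from trapezoidal integration of a log-logistic fit, after scaling curves that rose above full viability and discarding those that failed quality control. The fit had four parameters and used log10 doses.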

P12-Ichikawa = test: as above
Outline: as §1

SEM cells [2] = test: as above
Outline: as §1

[3] = HPLM + 10% dialyzed FBS, 0.000781 µM
[4] = HPLM + 10% dialyzed FBS, 0.00234 µM
[5] = HPLM + 10% dialyzed FBS, 0.00702 µM
[6] = HPLM + 10% dialyzed FBS, 0.0211 µM
[7] = HPLM + 10% dialyzed FBS, 0.0632 µM
[8] = HPLM + 10% dialyzed FBS, 0.19 µM
[9] = HPLM + 10% dialyzed FBS, 0.569 µM
[10] = HPLM + 10% dialyzed FBS, 1.71 µM
[11] = HPLM + 10% dialyzed FBS, 5.12 µM
[12] = HPLM + 10% dialyzed FBS, 15.4 µM
[13] = HPLM + 10% dialyzed FBS, 46.1 µM
[14] = RPMI 5 mM glucose + 10% FBS, 0.000781 µM
[15] = RPMI 5 mM glucose + 10% FBS, 0.00234 µM
[16] = RPMI 5 mM glucose + 10% FBS, 0.00702 µM
[17] = RPMI 5 mM glucose + 10% FBS, 0.0211 µM
[18] = RPMI 5 mM glucose + 10% FBS, 0.0632 µM
[19] = RPMI 5 mM glucose + 10% FBS, 0.19 µM
[20] = RPMI 5 mM glucose + 10% FBS, 0.569 µM
[21] = RPMI 5 mM glucose + 10% FBS, 1.71 µM
[22] = RPMI 5 mM glucose + 10% FBS, 5.12 µM
[23] = RPMI 5 mM glucose + 10% FBS, 15.4 µM
[24] = RPMI 5 mM glucose + 10% FBS, 46.1 µM
[25] = RPMI 5 mM glucose + 10% dialyzed FBS

NC/1=N/[C@]2(COC[C@H]2CS1)C3=CC(=CC=C3F)NC(=O)C4=NC=C(F)C=C4
cell viability (SEM cells [1]; [3]): 90.8%
cell viability (SEM cells [1]; [4]): 111%
cell viability (SEM cells [1]; [5]): 131%
cell viability (SEM cells [1]; [6]): 127%
cell viability (SEM cells [1]; [7]): 132%
cell viability (SEM cells [1]; [8]): 140%
cell viability (SEM cells [1]; [9]): 130%
cell viability (SEM cells [1]; [10]): 135%
cell viability (SEM cells [1]; [11]): 136%
cell viability (SEM cells [1]; [12]): 147%
cell viability (SEM cells [1]; [13]): 110%
cell viability (SEM cells [1]; [14]): 119%
cell viability (SEM cells [1]; [15]): 120%
cell viability (SEM cells [1]; [16]): 129%
cell viability (SEM cells [1]; [17]): 135%
cell viability (SEM cells [1]; [18]): 138%
cell viability (SEM cells [1]; [19]): 149%
cell viability (SEM cells [1]; [20]): 127%
cell viability (SEM cells [1]; [21]): 141%
cell viability (SEM cells [1]; [22]): 155%
cell viability (SEM cells [1]; [23]): 29%
cell viability (SEM cells [1]; [24]): 7.7%
AUC of viability dose-response curve (NOMO1; HPLM + 10% dialyzed FBS): 324
AUC of viability dose-response curve (NOMO1; RPMI 5 mM glucose + 10% FBS): 302
AUC of viability dose-response curve (NOMO1; [25]): 313
AUC of viability dose-response curve (P12-Ichikawa; HPLM + 10% dialyzed FBS): 350
AUC of viability dose-response curve (P12-Ichikawa; RPMI 5 mM glucose + 10% FBS): 348
AUC of viability dose-response curve (P12-Ichikawa; [25]): 374
AUC of viability dose-response curve (SEM cells [2]; HPLM + 10% dialyzed FBS): 461
AUC of viability dose-response curve (SEM cells [2]; RPMI 5 mM glucose + 10% FBS): 417
AUC of viability dose-response curve (SEM cells [2]; [25]): 471

N/C1=N/C(=O)C/2=C(NC[C@@H](CNC3=CC=C(C=C3)C(=O)N[C@@H](CCC([O-])=O)C([O-])=O)N2C=O)\N1
cell viability (SEM cells [1]; [3]): 103%
cell viability (SEM cells [1]; [4]): 114%
cell viability (SEM cells [1]; [5]): 120%
cell viability (SEM cells [1]; [6]): 115%
cell viability (SEM cells [1]; [7]): 131%
cell viability (SEM cells [1]; [8]): 114%
cell viability (SEM cells [1]; [9]): 117%
cell viability (SEM cells [1]; [10]): 116%
cell viability (SEM cells [1]; [11]): 119%
cell viability (SEM cells [1]; [12]): 123%
cell viability (SEM cells [1]; [13]): 136%
AUC of viability dose-response curve (NOMO1; HPLM + 10% dialyzed FBS): 319
AUC of viability dose-response curve (NOMO1; RPMI 5 mM glucose + 10% FBS): 307
AUC of viability dose-response curve (NOMO1; [25]): 321
AUC of viability dose-response curve (SEM cells [2]; HPLM + 10% dialyzed FBS): 446
AUC of viability dose-response curve (SEM cells [2]; RPMI 5 mM glucose + 10% FBS): 465
AUC of viability dose-response curve (SEM cells [2]; [25]): 437

Fc1ccc([C@@H]2CCNC[C@H]2COc2ccc3c(c2)OCO3)cc1
cell viability (SEM cells [1]; [3]): 119%
cell viability (SEM cells [1]; [4]): 124%
cell viability (SEM cells [1]; [5]): 130%
cell viability (SEM cells [1]; [6]): 141%
cell viability (SEM cells [1]; [7]): 122%
cell viability (SEM cells [1]; [8]): 123%
cell viability (SEM cells [1]; [9]): 125%
cell viability (SEM cells [1]; [10]): 109%
cell viability (SEM cells [1]; [11]): 103%
cell viability (SEM cells [1]; [12]): 58.9%
cell viability (SEM cells [1]; [13]): 24.7%
AUC of viability dose-response curve (NOMO1; HPLM + 10% dialyzed FBS): 447
AUC of viability dose-response curve (NOMO1; RPMI 5 mM glucose + 10% FBS): 463
AUC of viability dose-response curve (NOMO1; [25]): 455
AUC of viability dose-response curve (P12-Ichikawa; HPLM + 10% dialyzed FBS): 396
AUC of viability dose-response curve (P12-Ichikawa; RPMI 5 mM glucose + 10% FBS): 337
AUC of viability dose-response curve (P12-Ichikawa; [25]): 393
AUC of viability dose-response curve (SEM cells [2]; HPLM + 10% dialyzed FBS): 417
AUC of viability dose-response curve (SEM cells [2]; RPMI 5 mM glucose + 10% FBS): 407
AUC of viability dose-response curve (SEM cells [2]; [25]): 416

C[C@@H]1CC[C@H]2[C@@H](C)C(=O)O[C@@H]3O[C@@]4(C)CC[C@@H]1[C@]32OO4
cell viability (SEM cells [1]; [14]): 115%
cell viability (SEM cells [1]; [15]): 144%
cell viability (SEM cells [1]; [16]): 118%
cell viability (SEM cells [1]; [17]): 134%
cell viability (SEM cells [1]; [18]): 109%
cell viability (SEM cells [1]; [19]): 108%
cell viability (SEM cells [1]; [20]): 115%
cell viability (SEM cells [1]; [21]): 87.6%
cell viability (SEM cells [1]; [22]): 91.7%
cell viability (SEM cells [1]; [23]): 116%
cell viability (SEM cells [1]; [24]): 114%
cell viability (SEM cells [1]; RPMI 5 mM glucose + 10% dialyzed FBS, 0.000781 µM): 132%
cell viability (SEM cells [1]; RPMI 5 mM glucose + 10% dialyzed FBS, 0.00234 µM): 113%
cell viability (SEM cells [1]; RPMI 5 mM glucose + 10% dialyzed FBS, 0.00702 µM): 120%
cell viability (SEM cells [1]; RPMI 5 mM glucose + 10% dialyzed FBS, 0.0211 µM): 118%
cell viability (SEM cells [1]; RPMI 5 mM glucose + 10% dialyzed FBS, 0.0632 µM): 110%
cell viability (SEM cells [1]; RPMI 5 mM glucose + 10% dialyzed FBS, 0.19 µM): 100%
cell viability (SEM cells [1]; RPMI 5 mM glucose + 10% dialyzed FBS, 0.569 µM): 97.6%
cell viability (SEM cells [1]; RPMI 5 mM glucose + 10% dialyzed FBS, 1.71 µM): 77.3%
cell viability (SEM cells [1]; RPMI 5 mM glucose + 10% dialyzed FBS, 5.12 µM): 72.2%
cell viability (SEM cells [1]; RPMI 5 mM glucose + 10% dialyzed FBS, 15.4 µM): 112%
cell viability (SEM cells [1]; RPMI 5 mM glucose + 10% dialyzed FBS, 46.1 µM): 126%
AUC of viability dose-response curve (NOMO1; HPLM + 10% dialyzed FBS): 435
AUC of viability dose-response curve (NOMO1; RPMI 5 mM glucose + 10% FBS): 419
AUC of viability dose-response curve (NOMO1; [25]): 451
AUC of viability dose-response curve (P12-Ichikawa; HPLM + 10% dialyzed FBS): 440
AUC of viability dose-response curve (P12-Ichikawa; RPMI 5 mM glucose + 10% FBS): 412
AUC of viability dose-response curve (P12-Ichikawa; [25]): 416
AUC of viability dose-response curve (SEM cells [2]; HPLM + 10% dialyzed FBS): 436
AUC of viability dose-response curve (SEM cells [2]; RPMI 5 mM glucose + 10% FBS): 424
AUC of viability dose-response curve (SEM cells [2]; [25]): 418
